Reference: patent publication US20020022587A1, “Methods for effecting neuroprotection” (priority 2000, published 2002)

Columns and labels:
[1] = test system: magnocellular neurons of the paraventricular nucleus (PVN); assay: NMDA agonist excitotoxicity after PVN microinjection, surviving magnocellular neurons, spontaneously hypertensive rats; assay type: in vivo, rat
Description: (§1) To determine whether magnocellular neurons in hypertensive rats with increased central angiotensin-II lose their resistance to excitotoxins as a consequence of endogenous angiotensin-II inhibiting the transient K^+ conductance, NMDA agonist or vehicle control was microinjected into PVN and surviving neurons were counted three days later. Following such treatment, a similar loss of parvocellular neurons to that found in normotensive animals was observed (82±2% surviving), while the resistance of magnocellular neurons was no longer observed in these animals (71±5% surviving) (see FIG. 3 for specific N values). To confirm that angiotensin-II was responsible for this loss of resistance, the NMDA agonist was next microinjected into PVN of spontaneously hypertensive rats immediately following the angiotensin-II receptor antagonist saralasin. […] These findings provide the first direct evidence that elevated angiotensin-II concentrations in the central nervous system of hypertensive animals may contribute to the increased susceptibility for stroke and that these actions can be prevented by central angiotensin-II receptor blockade. […]
(§2) The blocks were mounted, covered with Tissue-Tek O.C.T. compound (Sakura) and flash frozen in 2-methyl butane (cooled by dry ice) for 45 seconds. […] Only those animals with microinjection within the boundaries of PVN were further analyzed. […]

[2] = Li et al., Brain Res. Bull. 30:33-39 (1993); cited from earlier work
[3] = test system: magnocellular neurons of the paraventricular nucleus (PVN); assay: NMDA agonist excitotoxicity after PVN microinjection, histological count of surviving magnocellular neurons, Sprague-Dawley rats; assay type: in vivo, rat; settings: counted three days later
Method: Experiments were performed on male Sprague-Dawley rats (150-525 g. Charles River, P.Q., Canada). The animals were anesthetized with sodium pentobarbitol (65 mg/kg, ip), placed in a stereotaxic frame and the skull exposed, and a small burr hole drilled in the skull such that a cannula electrode (tip diameter 150 μm) could be advanced into the region of the PVN according to the coordinates of Paxinos and Watson (−0.9 mm Bregma, 0.5 mm lateral, 7.5 mm ventral) (Paxinos and Watson, The Rat Brain in Stereotaxic Coordinates, Academic Press, New York (1982)). Each animal received a 1.0 μl microinjection to each PVN (2×0.5 μl) according to one of the following protocols, saline/saline, saline/NMDA, 4-AP/saline, 4-AP/NMDA, angiotensin-II/saline, angiotensin-II/NMDA, saralasin (SAR)/NMDA. The incision was then closed and the animal received the analgesic Buprenorphin (0.03 mg/kg, SQ) to aid postoperative recovery. Animals were allowed to recover for three days after which they were overdosed with sodium pentobarbitol (100 mg/kg) and perfused with 0.9% saline followed by 10% formalin through the left ventricle of the heart. The brain was removed, placed in formalin overnight at […]. The brain was then cut into a smaller block contained PVN and stored in a 30% sucrose, 0.1 M phosphate buffer at 4° C. for at least two days.
The blocks were mounted, covered with Tissue-Tek O.C.T. compound (Sakura) and flash frozen in 2-methyl butane (cooled by dry ice) for 45 seconds. Using the Frigocut 280 (Reichart Jung), 20 μm coronal sections were cut through the area of PVN. These sections were mounted and cresyl violet stained. The histological locations of the microinjection sites were verified at the light microscope level by an observer unaware of the experimental conditions. Only those animals with microinjection within the boundaries of PVN were further analyzed.
Magnocellular neurons were differentiated from parvocellular neurons and cellular material by specific morphological characteristics (Sawchenko and Swanson, J. Comp. Neuro. 218:121-44 (1983)). In addition to the anatomical location of the neuron within PVN, morphological size was used to further characterize neuronal type. Neurons with soma diameter of approximately 20-25 μm and intact nuclei were characterized as viable magnocellular neurons. Neurons with soma diameter of between 15 and 20 μm were not included in the study, as they could not be reliably classified as belonging to either subpopulation. Histological sections were viewed under high magnification (40×) at the light microscope level and a grid was superimposed over each area of PVN. […] Comparative analyses were performed whereby neurons were counted in 20 μm sections following the initial emergence of PVN. […]

[4] = test system: parvocellular neurons of the paraventricular nucleus (PVN); assay: NMDA agonist excitotoxicity after PVN microinjection, histological count of surviving parvocellular neurons, Sprague-Dawley rats; assay type: in vivo, rat
Method: Experiments were performed on male Sprague-Dawley rats (150-525 g. Charles River, P.Q., Canada). The animals were anesthetized with sodium pentobarbitol (65 mg/kg, ip), placed in a stereotaxic frame and the skull exposed, and a small burr hole drilled in the skull such that a cannula electrode (tip diameter 150 μm) could be advanced into the region of the PVN according to the coordinates of Paxinos and Watson (−0.9 mm Bregma, 0.5 mm lateral, 7.5 mm ventral) (Paxinos and Watson, The Rat Brain in Stereotaxic Coordinates, Academic Press, New York (1982)). Each animal received a 1.0 μl microinjection to each PVN (2×0.5 μl) according to one of the following protocols, saline/saline, saline/NMDA, 4-AP/saline, 4-AP/NMDA, angiotensin-II/saline, angiotensin-II/NMDA, saralasin (SAR)/NMDA. […]
The blocks were mounted, covered with Tissue-Tek O.C.T. compound (Sakura) and flash frozen in 2-methyl butane (cooled by dry ice) for 45 seconds. […] Only those animals with microinjection within the boundaries of PVN were further analyzed.
Magnocellular neurons were differentiated from parvocellular neurons and cellular material by specific morphological characteristics (Sawchenko and Swanson, J. Comp. Neuro. 218:121-44 (1983)). […] Comparative analyses were performed whereby neurons were counted in 20 μm sections following the initial emergence of PVN. […]

[5] = test system: outwardly rectifying whole-cell K+ current of isolated PVN neurons; assay: Voltage clamp recordings from dissociated PVN neurons, voltage ramps; assay type: cell-based, rat; settings: voltage ramps 100 mV/sec
Method: Male, Sprague-Dawley rats (150-250 g, Charles River, P.Q., Canada) were killed by decapitation, the brain was removed quickly from the skull and immersed in cold (1-4° C.) artificial cerebrospinal fluid (aCSF). The brain was blocked and 400 μm hypothalamic slices, which included the PVN, were prepared as described in Bains and Ferguson (NeuroReport 8(9-10):2101-05 (1997)). Slices were incubated in oxygenated aCSF (95% O2, 5% CO2) for at least 90 minutes at room temperature. Twenty minutes prior to recording, the slice was transferred into a modified interface type recording chamber and continuously perfused with aCSF at a rate of 1 ml/min.
For isolated neurons, pipettes of 1-4 MΩ were filled with a pipette solution containing (in mM): potassium-gluconate (130), EGTA(10), MgCl2 (1), HEPES (10), Na2ATP (4), GTP (0.1), adjusted to pH 7.2 with KOH. The standard bath solution contained (inmM): NaCl (140), KCl (5), MgCl2 (1), CaCl2 (2), HEPES (10), glucose (10) and […] tetrodotoxin (TTX) (Alamone Labs, Jerusalem, Israel). Signals were amplified, collected and processed using an Axopatch 200B (Axon Instruments) amplifier, a 1401plus A-D interface and Signal software from C.E.D. […]

[6] = test system: parvocellular neurons of the paraventricular nucleus (PVN); assay: NMDA agonist excitotoxicity after PVN microinjection, surviving parvocellular neurons, spontaneously hypertensive rats; assay type: in vivo, rat; settings: NMDA agonist alone into PVN, counted three days later
Description: as §1, §2

[7] = substance microinjected into PVN alone
[8] = substance microinjected into PVN prior to NMDA agonist

CNCC(=O)N[C@@H](CCCN=C(N)N)C(=O)N[C@H](C(=O)N[C@@H](Cc1ccc(O)cc1)C(=O)N[C@H](C(=O)N[C@@H](Cc1cnc[nH]1)C(=O)N1CCC[C@H]1C(=O)N[C@@H](C)C(=O)O)C(C)C)C(C)C [saralasin, Sar^1Ala^8-angiotensin-II]
effect on cell viability ([1]; SHR PVN, saralasin by itself): no effect
crossing of the blood-brain barrier [2]: does not cross the blood-brain barrier

angiotensin-II: octapeptide hormone, end product of the RAS, powerful arterial vasoconstrictor
proportion of magnocellular neurons surviving [3, 7]: 97.4±4.2%
proportion of magnocellular neurons surviving [3, 8]: 80.8±3.75%

Nc1ccncc1 [4-AP, 4-aminopyridine]
proportion of magnocellular neurons surviving [3, 8]: 78.9±4.6%
effect of 4-AP on parvocellular neuron population ([4]; 4-AP pretreatment before NMDA agonist microinjection): no significant effect
proportion of parvocellular neurons surviving ([4]; NMDA agonist microinjection, PVN treated with 4-AP): 80.9±3.0%
inhibition of outwardly rectifying whole-cell current ([5]; 100 μM): inhibited

N[C@@H](C(=O)O)c1nnn[nH]1 [NMDA agonist, D-1-tetrazol-5yl-glycine]
proportion of magnocellular neurons surviving [3, 7]: 100.0±2.4%
magnocellular neurons surviving ([1]; hypertensive rats, NMDA agonist alone into PVN, counted three days later): 71±5%
parvocellular neurons surviving [6]: 82±2%

a-dendrotoxin [a-DTX]
inhibition of outwardly rectifying whole-cell current, compared with 100 μM 4-AP ([5]; 1 μM): to an equal degree
